According to ChEMBL document CHEMBL1140124, “Triterpenoids from the leaves of Diospyros kaki (persimmon) and their inhibitory effects on protein tyrosine phosphatase 1B” (J Nat Prod, 2008):

Target: T1, Tyrosine-protein phosphatase non-receptor type 1 (Homo sapiens, UniProt P18031)
T1 sequence (P18031 whole entry): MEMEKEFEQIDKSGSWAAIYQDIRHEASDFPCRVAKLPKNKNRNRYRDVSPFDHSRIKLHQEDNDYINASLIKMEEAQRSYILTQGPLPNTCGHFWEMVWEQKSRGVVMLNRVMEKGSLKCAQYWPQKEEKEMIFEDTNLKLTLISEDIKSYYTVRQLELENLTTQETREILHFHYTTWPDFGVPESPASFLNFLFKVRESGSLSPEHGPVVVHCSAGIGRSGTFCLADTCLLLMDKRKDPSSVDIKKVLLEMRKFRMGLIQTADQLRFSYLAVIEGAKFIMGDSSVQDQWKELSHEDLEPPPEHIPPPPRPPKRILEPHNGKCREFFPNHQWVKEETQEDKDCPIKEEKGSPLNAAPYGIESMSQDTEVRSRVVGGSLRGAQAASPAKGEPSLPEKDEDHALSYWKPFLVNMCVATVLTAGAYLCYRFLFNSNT
Assay: Inhibition of human recombinant PTP1B after 30 mins

Compound `C=C1CC[C@]2(C(=O)O)CC[C@]3(C)C(=CC[C@@H]4[C@@]5(C)CC[C@@H](O)[C@](C)(C(=O)O)[C@@H]5CC[C@]43C)[C@@H]2[C@]1(C)O` [DIOSPYRIC ACID A] has an IC50 greater than 30 µM.

`CC1(C)CC[C@]2(C(=O)O)CC[C@]3(C)C(=CC[C@@H]4[C@@]5(C)CC[C@H](O)[C@](C)(CO)[C@@H]5CC[C@]43C)[C@@H]2[C@@H]1O` [SPATHODIC ACID] was tested, and the IC50 was 18.8 µM.

With `CC1(C)CC[C@]2(C(=O)O)CC[C@]3(C)C(=CC[C@@H]4[C@@]5(C)CC[C@@H](O)[C@](C)(CO)[C@@H]5CC[C@]43C)[C@@H]2C1` [SCUTELLARIC ACID] the IC50 was greater than 30 µM.

Compound `C[C@@H]1CC[C@]2(C(=O)O)CC[C@]3(C)C(=CC[C@@H]4[C@@]5(C)CCC(=O)[C@](C)(CO)[C@@H]5CC[C@]43C)[C@@H]2[C@]1(C)O` has an IC50 of 8.1 µM.

`C[C@@H]1CC[C@]2(C(=O)O)CC[C@]3(C)C(=CC[C@@H]4[C@@]5(C)CC[C@@H](O)[C@](C)(C(=O)O)[C@@H]5CC[C@]43C)[C@@H]2[C@]1(C)O` [DIOSPYRIC ACID B] gave an IC50 greater than 30 µM.

For `C[C@@H]1CC[C@]2(C(=O)O)CC[C@]3(C)C(=CC[C@@H]4[C@@]5(C)CC[C@@H](O)[C@](C)(CO)[C@@H]5CC[C@]43C)[C@@H]2[C@]1(C)O` [BARBINERVIC ACID], the IC50 was greater than 30 µM.

With `C[C@@H]1CC[C@]2(C(=O)O)CC[C@]3(C)C(=CC[C@@H]4[C@@]5(C)CC[C@H](O)C(C)(C)[C@@H]5CC[C@]43C)[C@@H]2[C@]1(C)O` [POMOLIC ACID] the IC50 was 3.9 µM.

Compound `C[C@H]1[C@H](C)CC[C@]2(C(=O)O)CC[C@]3(C)C(=CC[C@@H]4[C@@]5(C)CC[C@@H](O)[C@](C)(CO)[C@@H]5CC[C@]43C)[C@H]12` has an IC50 greater than 30 µM.

`CC1(C)CC[C@]2(C(=O)O)CC[C@]3(C)C(=CC[C@@H]4[C@@]5(C)CCC(=O)C(C)(C)[C@@H]5CC[C@]43C)[C@@H]2C1` [OLEANONIC ACID] showed an IC50 of 3.5 µM.

In the case of `C[C@H]1[C@H](C)CC[C@]2(C(=O)O)CC[C@]3(C)C(=CC[C@@H]4[C@@]5(C)CC[C@H](O)[C@](C)(CO)[C@@H]5CC[C@]43C)[C@H]12`, the IC50 is reported as 12.8 µM.

Compound `C[C@@]1(CO)CC[C@]2(C(=O)O)CC[C@]3(C)C(=CC[C@@H]4[C@@]5(C)CC[C@@H](O)[C@](C)(CO)[C@@H]5CC[C@]43C)[C@@H]2C1` has an IC50 greater than 30 µM.

Work on `C[C@@H]1CC[C@]2(C(=O)O)CC[C@]3(C)C(=CC[C@@H]4[C@@]5(C)CC[C@H](O)[C@](C)(CO)[C@@H]5CC[C@]43C)[C@@H]2[C@]1(C)O` [ROTUNGENIC ACID] yielded an IC50 of 10.9 µM.

`C=C1CC[C@]2(C(=O)O)CC[C@]3(C)C(=CC[C@@H]4[C@@]5(C)CC[C@@H](O)[C@](C)(CO)[C@@H]5CC[C@]43C)[C@@H]2[C@]1(C)O` [COUSSARIC ACID] showed an IC50 greater than 30 µM.

`CCCCCCCCCCCCCCCC(=O)C1=C(O)[C@@H](CO)OC1=O` was tested, and the IC50 was 4.1 µM.
